Data set [1] relates to A673 cells. Briefly: Cytotoxicity in A673 cells (Cell Titer Glo viability). Type of data set: cell-based. The note with it: for Ratio of Biochemical Potency:Cellular Potency: CDK12 IC50 / A673 IC50; for IC50: Homo sapiens. Summed up: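 Cells plated at 1.2×10^5 per well in DMEM+10% FBS, 24 h, then compound series ± MLN4924 (30 nM final) in 0.1% DMSO for 72 h. Viability by Cell Titer Glo luminescence, normalised to vehicle (100%) and 0.1% Triton x-100 (0%); MLN4924 curves normalised to MLN4924-treated controls.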
In general terms: In ATP-based viability assays light output follows the ATP content of the culture.

For data set [2], the system named is A673 cells. As to the kind of experiment: A673 cytotoxic potency shift in the presence of MLN4924 (cyclin K degrader activity). Type of data set: cell-based. The note with it: for Cyclin K Degrader Activity (A673 potency shift + MLN4924): 30 nM MLN4924, 72 hours; for Change of cytotoxic potency in the presence of MLN4924: 72 hours, presence and absence of 30 nM MLN4924. Here is the method: Inhibition of cell viability by test compounds was assessed in A673 cells (ATCC CRL-1598) and the compound mode of action was attributed to a “molecular-glue”/cyclin K-degradation mechanism by probing for a loss of compound potency in the presence of the NEDD8-activating enzyme inhibitor, MLN4924.
Cells were plated in 96-well plates at a density of […] viable cells per well in 200 μL fully supplemented growth medium (DMEM+10% heat inactivated foetal bovine serum) and incubated for 24 hours in standard tissue culture conditions. Compounds, including MLN4924, were solubilised in DMSO and then diluted in fully supplemented growth medium at 2× their final assay concentration such that the final DMSO concentration was 0.1%. Growth medium in the assay plates was replaced with 50 μL of growth medium containing 2×MLN4924 (final assay concentration: 30 nM, where tested) or vehicle only and 50 μL of growth medium containing a 2× compound concentration series or vehicle only such that each compound was at 1× final assay concentration in 100 μL.
Cells were then incubated for 72 hours in standard tissue culture conditions before viability was assessed using 50 μL Cell Titer Glo reagent (Promega) per well and luminescence measured on an EnVision plate reader. Data were normalised to vehicle control (100%) and cells treated with 0.1% Triton x-100 for 1 hour before viability measurement (0%; full cell kill). IC50 values were determined using a semi-logistic curve fit with parameters “top” fixed at 100% and “bottom” at or below 0%. Viability curves generated in the presence of MLN4924 were normalised and fixed to controls treated with MLN4924.

For data set [3], the target named is Human CDK12 wt/CycK (Homo sapiens (Human), UniProt Q9NYV4). As to the kind of experiment: Radiometric protein kinase assay (33PanQinase Activity Assay), CDK12. Type of data set: biochemical. Particulars: for CDK7/CDK12: ratio of CDK7 IC50 to CDK12 IC50, greater than 1 indicates selectivity for CDK12. Summed up:
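Radiometric 33P assay: ATP, test compound (in 10% DMSO) and premixed substrate/enzyme incubated 60 min at 30 °C, stopped with 2% H3PO4. 33Pi incorporation counted by scintillation; least-squares curve fit.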

The target of data set [4] is Human CDK7/CycH/MAT1 (Homo sapiens (Human), UniProt P50613). Briefly: Radiometric protein kinase assay (33PanQinase Activity Assay), CDK7. Type of data set: biochemical. The note with it: ATP 3 μM.
Human CDK7/CycH/MAT1, sequence (P50613 whole entry): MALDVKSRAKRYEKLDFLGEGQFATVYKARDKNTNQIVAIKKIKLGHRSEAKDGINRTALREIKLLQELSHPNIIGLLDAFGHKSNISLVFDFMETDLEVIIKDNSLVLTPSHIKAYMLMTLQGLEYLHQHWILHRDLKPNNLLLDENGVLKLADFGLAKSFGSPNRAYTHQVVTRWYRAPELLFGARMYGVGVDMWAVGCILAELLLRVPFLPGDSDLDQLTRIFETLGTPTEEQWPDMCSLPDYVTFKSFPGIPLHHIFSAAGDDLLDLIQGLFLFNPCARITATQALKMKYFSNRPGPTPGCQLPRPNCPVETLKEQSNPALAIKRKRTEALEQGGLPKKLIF
Human CDK7/CycH/MAT1, sequence (P51946 whole entry partner): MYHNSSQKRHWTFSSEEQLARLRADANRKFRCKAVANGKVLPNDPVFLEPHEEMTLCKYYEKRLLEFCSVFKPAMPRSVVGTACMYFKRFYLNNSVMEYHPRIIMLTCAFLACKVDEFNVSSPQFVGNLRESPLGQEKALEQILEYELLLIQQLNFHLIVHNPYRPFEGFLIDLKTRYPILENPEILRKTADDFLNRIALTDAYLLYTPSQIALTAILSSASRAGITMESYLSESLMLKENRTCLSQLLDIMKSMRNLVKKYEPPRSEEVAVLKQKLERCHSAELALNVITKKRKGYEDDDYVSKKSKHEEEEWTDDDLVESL
Human CDK7/CycH/MAT1, sequence (P51948 whole entry partner): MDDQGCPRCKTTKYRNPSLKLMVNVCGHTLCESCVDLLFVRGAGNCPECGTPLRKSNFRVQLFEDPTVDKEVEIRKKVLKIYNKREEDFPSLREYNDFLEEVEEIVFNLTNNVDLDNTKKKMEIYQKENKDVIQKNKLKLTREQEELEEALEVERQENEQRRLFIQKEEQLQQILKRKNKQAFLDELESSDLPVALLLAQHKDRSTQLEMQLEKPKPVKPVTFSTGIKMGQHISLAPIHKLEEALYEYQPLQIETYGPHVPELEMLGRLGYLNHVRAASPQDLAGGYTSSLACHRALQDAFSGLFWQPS
Data set [5] concerns the target Cyclin K (Homo sapiens (Human), UniProt O75909). Briefly: Western blotting analysis of Cyclin K depletion in cell culture. The note with it: A673 cells, 1 μM test compound, 2 hours, absence and presence of 10 μM MLN4924. Type of data set: cell-based. Here is the method: A673 cells were incubated for 2 hours with of 1 μM compound in presence or in absence of 10 μM of the NAE (NEDD8 activating enzyme) inhibitor MLN4924 (Cell Signalling Technologies). Cells were washed 2× with cold Phosphate Buffered Saline (PBS, Sigma Aldrich), followed by the addition of lysis buffer for 15 minutes on ice before harvesting and centrifugation.
Protein content in the cell lysate was assessed by BCA assay (Thermo Fisher). Samples were then prepared with 4× Laemmlli Buffer (Bio-Rad) and heated to 95° C. for 5 minutes. Each sample was loaded onto a Mini-PROTEAN TGX Stain Free Gel (Bio-Rad) at 50 μg protein/well. SDS-PAGE was performed and then protein was transferred onto a PVDF membrane using a Trans-Blot® Turbo™ Midi PVDF Transfer Pack (Bio-Rad. Membranes were blocked in TBS-T (Invitrogen), 5% (w/v) milk powder (Marvel) overnight at 4° C.
Membranes were incubated with anti-CCNK antibody (rabbit) primary antibody (Abcam) and anti-GAPDH antibody (rabbit) in TBS-T for 2 hours. Membranes were then washed three times with TBS-T, before incubation secondary goat anti-rabbit HRP antibody (Cell Signalling Technologies) followed by 3× washing in TBS-T. Blots were imaged using a Chemidoc imager (Bio-Rad). Cyclin K depletion was measured as the observable drop in band intensity in compound treated samples relative to proteasome-inhibitor treated samples.
Cyclin K degradation was evaluated by Western blotting for cyclin K in A673 cells exposed to 1 μM test compound for 2 hours in the absence and presence of 10 μM MLN4924 (to inhibit proteosome activity).
For orientation: A western blot detects proteins with antibodies after separation by electrophoresis.

Setting [6] is: A673, read-out: Cellular Potency IC50 (nM) (in A673 cells).
Where [7] appears, read: A673 cells, 72 hours, read-out: A673 IC50.
The mark [8] stands for this setting: ATP 0.3 μM, read-out: CDK12 IC50.
Where [9] appears, read: read-out: CKD12 Biochemical Potency IC50.

Structures are written as SMILES. Where two headings read alike, the source gives them in different places.

Human CDK12 wt/CycK, sequence (Q9NYV4 whole entry): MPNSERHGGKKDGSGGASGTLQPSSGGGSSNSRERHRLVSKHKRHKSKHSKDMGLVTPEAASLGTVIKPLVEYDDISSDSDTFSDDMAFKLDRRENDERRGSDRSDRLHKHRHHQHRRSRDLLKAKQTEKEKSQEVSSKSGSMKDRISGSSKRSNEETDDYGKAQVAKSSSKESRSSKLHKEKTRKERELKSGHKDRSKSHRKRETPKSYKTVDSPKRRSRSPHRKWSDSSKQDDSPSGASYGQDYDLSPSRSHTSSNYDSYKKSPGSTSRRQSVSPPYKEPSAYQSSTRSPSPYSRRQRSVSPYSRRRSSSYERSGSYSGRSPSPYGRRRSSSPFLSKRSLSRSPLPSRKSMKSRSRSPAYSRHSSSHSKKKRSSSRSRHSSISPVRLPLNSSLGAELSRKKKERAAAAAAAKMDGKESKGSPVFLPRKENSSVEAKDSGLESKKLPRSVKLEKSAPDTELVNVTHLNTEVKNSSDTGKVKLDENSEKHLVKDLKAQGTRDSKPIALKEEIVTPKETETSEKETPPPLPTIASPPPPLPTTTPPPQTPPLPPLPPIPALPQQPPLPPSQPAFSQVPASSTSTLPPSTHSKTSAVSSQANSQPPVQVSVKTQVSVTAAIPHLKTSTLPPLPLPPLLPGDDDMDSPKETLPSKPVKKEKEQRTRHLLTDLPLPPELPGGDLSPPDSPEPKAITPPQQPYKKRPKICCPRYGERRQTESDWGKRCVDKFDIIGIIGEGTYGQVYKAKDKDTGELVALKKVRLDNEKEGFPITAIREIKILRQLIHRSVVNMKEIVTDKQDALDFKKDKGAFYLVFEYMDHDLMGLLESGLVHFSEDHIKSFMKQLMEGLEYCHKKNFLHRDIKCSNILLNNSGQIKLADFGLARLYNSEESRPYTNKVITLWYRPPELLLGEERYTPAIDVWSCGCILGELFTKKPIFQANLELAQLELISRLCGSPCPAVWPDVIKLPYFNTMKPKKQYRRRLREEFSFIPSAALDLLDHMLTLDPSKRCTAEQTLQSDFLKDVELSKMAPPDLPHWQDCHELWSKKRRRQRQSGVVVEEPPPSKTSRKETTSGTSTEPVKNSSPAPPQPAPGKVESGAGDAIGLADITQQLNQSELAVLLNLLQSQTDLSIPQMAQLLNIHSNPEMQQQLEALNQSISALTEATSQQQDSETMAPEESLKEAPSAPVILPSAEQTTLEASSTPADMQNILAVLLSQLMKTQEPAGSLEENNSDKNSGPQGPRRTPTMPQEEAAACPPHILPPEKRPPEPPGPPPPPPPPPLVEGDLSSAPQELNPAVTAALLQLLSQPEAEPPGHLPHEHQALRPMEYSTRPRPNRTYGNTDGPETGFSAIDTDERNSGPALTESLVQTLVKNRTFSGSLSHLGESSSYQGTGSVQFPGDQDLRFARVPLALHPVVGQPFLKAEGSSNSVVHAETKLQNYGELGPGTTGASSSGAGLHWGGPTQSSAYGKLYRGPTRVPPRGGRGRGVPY
Human CDK12 wt/CycK, sequence (O75909 whole entry partner): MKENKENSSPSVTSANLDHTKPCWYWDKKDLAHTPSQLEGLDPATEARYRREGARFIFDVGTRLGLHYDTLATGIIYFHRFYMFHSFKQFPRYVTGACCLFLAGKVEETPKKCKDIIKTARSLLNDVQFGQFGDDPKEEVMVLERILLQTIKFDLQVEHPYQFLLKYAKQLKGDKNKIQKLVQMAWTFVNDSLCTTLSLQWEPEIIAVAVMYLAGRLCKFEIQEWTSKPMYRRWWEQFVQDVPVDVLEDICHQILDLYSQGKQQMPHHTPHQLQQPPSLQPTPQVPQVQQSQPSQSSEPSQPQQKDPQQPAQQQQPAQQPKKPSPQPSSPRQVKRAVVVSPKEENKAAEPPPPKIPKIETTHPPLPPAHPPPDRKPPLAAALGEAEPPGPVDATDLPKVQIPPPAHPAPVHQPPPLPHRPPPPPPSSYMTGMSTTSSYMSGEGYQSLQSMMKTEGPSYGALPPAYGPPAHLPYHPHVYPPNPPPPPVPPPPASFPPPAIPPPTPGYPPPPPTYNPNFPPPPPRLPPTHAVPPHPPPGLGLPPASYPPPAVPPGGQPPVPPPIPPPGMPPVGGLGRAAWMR

As usually defined, the IC50 is the point on the concentration scale where inhibition reaches its midpoint. Regarding `O[C@H]1CNCC[C@@H]1CNc1cc(NCc2ccc(-c3ccccn3)cc2)n2ncc(C3CC3)c2n1` [PPA-006], the “Ratio of Biochemical Potency:Cellular Potency” value (from here on “Ratio”) in data set [1] was 14.57. Also, the IC50 in data set [1] (setting [6]) amounted to 3.5 nM; in data set [1] (setting [7]), 3.5 nM; in data set [3] (setting [8]) it was 51 nM; in data set [3] (setting [9]), 51 nM; in data set [4], 312 nM. Also, the “Cyclin K Degrader Activity (A673 potency shift + MLN4924)” value in data set [2] is recorded as “+++ (>5 fold change.)”. Also, the “Change of cytotoxic potency in the presence of MLN4924” value (from here on “Change of cytotoxic potency”) in data set [2] was “a significant decrease in cytotoxic potency”. Moreover, the CDK7/CDK12 in data set [3] was found to be 6.1. Further, the “Cyclin K degradation by Western blotting” value in data set [5] is listed as “found to degrade Cyclin K”.

In the case of `CC[C@H](CO)Nc1nc(NCc2ccc(-c3ccccn3)cc2)c2ncn(C(C)C)c2n1` [CR8, reference compound], the IC50 in data set [1] (setting [6]) and in data set [1] (setting [7]) was 84.5 nM each time. For the same compound, in data set [2], the “Change of cytotoxic potency” value is “a decrease in potency”. Further, the “Cyclin K degradation by Western blotting” value in data set [5] is listed as “did cause proteosomal dependent degradation of Cyclin K”.

As for `CN(C)C/C=C/C(=O)Nc1ccc(C(=O)N2CCC[C@@H](Nc3ncc(Cl)c(-c4c[nH]c5ccccc45)n3)C2)cc1` [THZ-531, reference compound], in data set [1], the “Ratio” value worked out at 0.74. Moreover, the IC50 in data set [1] (setting [6]) was 210 nM; in data set [3] (setting [9]), 160 nM. Moreover, in data set [2], the “Cyclin K Degrader Activity (A673 potency shift + MLN4924)” value is reported as “− (≤1 fold change.)”. Besides, the “Cyclin K degradation by Western blotting” value in data set [5] is listed as “no protesomal dependent Cyclin K degradation”.

Regarding `CCc1cnn2c(NCc3ccc(-c4ccccn4)cc3)cc(NC[C@H]3CCNC[C@@H]3O)nc12` [PPA-005, (3R,4R)-4-(((3-ethyl-7-((4-(pyridin-2-yl)benzyl)amino)pyrazolo[1,5-a]pyrimidin-5-yl)amino)methyl)piperidin-3-ol], in data set [1], the “Ratio” value is recorded as 30.91. In addition, the IC50 in data set [1] (setting [6]) was 1.1 nM; in data set [1] (setting [7]), 1.1 nM; in data set [3] (setting [8]) it was 34 nM; in data set [3] (setting [9]), 34 nM; in data set [4], 112 nM. Besides, the “Cyclin K Degrader Activity (A673 potency shift + MLN4924)” value in data set [2] is “++ (>2 and ≤5 fold change.)”. In addition, the “Change of cytotoxic potency” value in data set [2] is “a significant decrease in cytotoxic potency”. Further, the CDK7/CDK12 in data set [3] is 3.3. In addition, in data set [5], the “Cyclin K degradation by Western blotting” value is “found to degrade Cyclin K”.

As for `N#Cc1cnn2c(NCc3ccc(-c4ccccn4)cc3)cc(N[C@H]3CCNC3)nc12` [PPA-086], in data set [1], the “Ratio” value was 12.22. Besides, the 50% inhibitory concentration (IC50) worked out at 0.9 nM in data set [1] (setting [6]); 0.9 nM in data set [1] (setting [7]); 11 nM in data set [3] (setting [8]); 11 nM in data set [3] (setting [9]); 417 nM in data set [4]. For the same compound, the “Cyclin K Degrader Activity (A673 potency shift + MLN4924)” value in data set [2] is given as “+++ (>5 fold change.)”. The CDK7/CDK12 in data set [3] is reported as 37.9.

For `CCc1cnn2c(NCc3ccc(-c4ccccc4)cc3F)cc(NC[C@H]3CCNC[C@@H]3O)nc12` [PPA-069], the “Ratio” value in data set [1] is listed as 11.62. For the same compound, the half-maximal inhibitory concentration (IC50) in data set [1] (setting [6]) was 10.5 nM; in data set [1] (setting [7]) it was 10.5 nM; in data set [3] (setting [8]) it was 122 nM; in data set [3] (setting [9]) it was 122 nM; in data set [4], 267 nM. In addition, in data set [2], the “Cyclin K Degrader Activity (A673 potency shift + MLN4924)” value is “++ (>2 and ≤5 fold change.)”. Moreover, in data set [3], the CDK7/CDK12 was found to be 2.2.

As for `C1=C(c2cc(NCc3ccc(-c4ccccn4)cc3)n3ncc(C4CC4)c3n2)CNCC1` [PPA-088], the “Ratio” value in data set [1] came out at 24.00. Besides, the IC50 amounted to 2.5 nM in data set [1] (setting [6]); 2.5 nM in data set [1] (setting [7]); 60 nM in data set [3] (setting [8]); 60 nM in data set [3] (setting [9]); 762 nM in data set [4]. Further, the “Cyclin K Degrader Activity (A673 potency shift + MLN4924)” value in data set [2] is “+++ (>5 fold change.)”. Also, in data set [3], the CDK7/CDK12 worked out at 12.7.

Consider `O[C@H]1CNCC[C@@H]1CNc1cc(NCc2ccc(-n3cccn3)cc2)n2ncc(C3CC3)c2n1` [PPA-009], for which, in data set [1], the “Ratio” value worked out at 42.31. Also, the IC50 in data set [1] (setting [6]) came out at 1.3 nM; in data set [1] (setting [7]), 1.3 nM; in data set [3] (setting [8]) it was 55 nM; in data set [3] (setting [9]), 55 nM; in data set [4] it was 212 nM. The “Cyclin K Degrader Activity (A673 potency shift + MLN4924)” value in data set [2] was “++ (>2 and ≤5 fold change.)”. In addition, the CDK7/CDK12 in data set [3] is 3.9.

Values taken from US20240383900A1, “SUBSTITUTED PYRAZOLO [1,5-A]PYRIMIDINE-7-AMINE COMPOUNDS AS CDK INHIBITORS AND THEIR THERAPEUTIC USE” (Carrick Therapeutics Limited, priority 2021, published 2024).
